Measured values from the NIST ThermoML archive (doi:10.1021/je900428g).
Where “and” joins values, the source holds several entries; their conditions need not be identical. Equal entries are not always repeated.

Details: Fluid (supercritical or subcritical phases), Spherical resonator

[Ar] [argon]
Details | speed of sound
250 K, 53.7 kPa | 294.48 m/s
250 K, 198 kPa | 294.47 m/s
250 K, 329.4 kPa | 294.47 m/s
250 K, 2365.8 kPa | 294.8 m/s
250 K, 4652.9 kPa | 296.36 m/s
250 K, 5823 kPa | 297.76 m/s
250.16 K, 48.7 kPa | 294.57 m/s
250.16 K, 48.8 kPa | 294.58 m/s
250.16 K, 192 kPa | 294.57 m/s
250.16 K, 309.1 kPa | 294.57 m/s
250.16 K, 447.7 kPa | 294.56 m/s and 294.57 m/s
250.16 K, 598.6 kPa | 294.56 m/s and 294.57 m/s
250.16 K, 732.5 kPa | 294.56 m/s and 294.58 m/s
250.16 K, 875.6 kPa | 294.58 m/s
250.16 K, 1401.1 kPa | 294.62 m/s and 294.65 m/s
260 K, 198.6 kPa | 300.35 m/s
260 K, 327.3 kPa | 300.37 m/s
260 K, 3507.5 kPa | 301.95 m/s
260 K, 4624 kPa | 303.04 m/s
260 K, 6602.3 kPa | 305.84 m/s
270 K, 53.2 kPa | 306.06 m/s
270 K, 200 kPa | 306.11 m/s
270 K, 325.8 kPa | 306.15 m/s
270 K, 467.2 kPa | 306.2 m/s
270 K, 3521.8 kPa | 308.29 m/s
270 K, 4675.9 kPa | 309.59 m/s
270 K, 5775.2 kPa | 311.12 m/s
275.1 K, 47.6 kPa | 308.94 m/s
275.1 K, 206.8 kPa | 309.01 m/s
275.1 K, 206.9 kPa | 309.01 m/s
275.1 K, 384.3 kPa | 309.09 m/s and 309.1 m/s
275.1 K, 547.4 kPa | 309.17 m/s and 309.18 m/s
275.1 K, 591.7 kPa | 309.2 m/s
275.1 K, 706.2 kPa | 309.25 m/s and 309.26 m/s
275.1 K, 733.8 kPa | 309.27 m/s and 309.28 m/s
275.1 K, 860.2 kPa | 309.34 m/s and 309.33 m/s and 309.35 m/s
275.1 K, 860.3 kPa | 309.35 m/s
275.1 K, 1389.2 kPa | 309.65 m/s
275.1 K, 1389.3 kPa | 309.67 m/s
280 K, 200.1 kPa | 311.76 m/s
280 K, 328.3 kPa | 311.83 m/s
280 K, 2342.8 kPa | 313.26 m/s
280 K, 4647.9 kPa | 315.83 m/s
280 K, 5767 kPa | 317.48 m/s
280 K, 6610.3 kPa | 318.94 m/s
280.12 K, 99.1 kPa | 311.77 m/s
280.12 K, 305.2 kPa | 311.87 m/s
280.12 K, 307.7 kPa | 311.89 m/s
280.12 K, 529.4 kPa | 312 m/s
280.12 K, 531.1 kPa | 312.01 m/s
280.12 K, 745.8 kPa | 312.13 m/s
280.12 K, 748 kPa | 312.14 m/s
280.12 K, 962.4 kPa | 312.27 m/s
280.12 K, 964.6 kPa | 312.28 m/s
280.12 K, 1184.9 kPa | 312.42 m/s
280.12 K, 1396.4 kPa | 312.58 m/s
280.12 K, 1396.8 kPa | 312.57 m/s
280.12 K, 1601.7 kPa | 312.72 m/s
280.12 K, 1834.4 kPa | 312.91 m/s
290 K, 53.6 kPa | 317.2 m/s
290 K, 196.4 kPa | 317.3 m/s
290 K, 1191.6 kPa | 318.04 m/s
290 K, 2325 kPa | 319.08 m/s
290 K, 3477.8 kPa | 320.36 m/s
300 K, 30.5 kPa | 322.62 m/s
300 K, 183.8 kPa | 322.74 m/s
300 K, 308.3 kPa | 322.84 m/s
300 K, 1180.9 kPa | 323.61 m/s
300 K, 2331.5 kPa | 324.81 m/s
300 K, 4657.3 kPa | 327.88 m/s
300 K, 5832.9 kPa | 329.8 m/s
300 K, 6595.8 kPa | 331.21 m/s
300.11 K, 100.3 kPa | 322.73 m/s
300.11 K, 244.7 kPa | 322.85 m/s
300.11 K, 395.4 kPa | 322.98 m/s
300.11 K, 528 kPa | 323.11 m/s
300.11 K, 558.1 kPa | 323.12 m/s
300.11 K, 701.6 kPa | 323.24 m/s
300.11 K, 739.1 kPa | 323.3 m/s
300.11 K, 868 kPa | 323.39 m/s
300.11 K, 963 kPa | 323.5 m/s
300.11 K, 1011.7 kPa | 323.53 m/s
300.11 K, 1166.1 kPa | 323.69 m/s
300.11 K, 1618 kPa | 324.14 m/s
300.11 K, 1836.4 kPa | 324.37 m/s
300.12 K, 48.1 kPa | 322.69 m/s
300.12 K, 193 kPa | 322.81 m/s
300.12 K, 308.1 kPa | 322.91 m/s
300.12 K, 445.5 kPa | 323.02 m/s and 323.03 m/s
300.12 K, 729.9 kPa | 323.27 m/s and 323.28 m/s
300.12 K, 868.1 kPa | 323.39 m/s
300.12 K, 868.2 kPa | 323.4 m/s and 323.41 m/s
300.12 K, 1378.6 kPa | 323.87 m/s and 323.89 m/s
310 K, 104.7 kPa | 328.02 m/s
310 K, 198.6 kPa | 328.11 m/s
310 K, 329.2 kPa | 328.23 m/s
310 K, 463.4 kPa | 328.35 m/s
310 K, 2330.1 kPa | 330.38 m/s
310 K, 4624.6 kPa | 333.59 m/s
310 K, 6595.8 kPa | 337.02 m/s
320 K, 102 kPa | 333.28 m/s
320 K, 180.5 kPa | 333.35 m/s
320 K, 311 kPa | 333.48 m/s
320 K, 450.5 kPa | 333.63 m/s
320 K, 576.4 kPa | 333.77 m/s and 333.79 m/s
320 K, 1053.9 kPa | 334.3 m/s and 334.32 m/s
320 K, 1550.8 kPa | 334.89 m/s and 334.9 m/s
320 K, 2333.1 kPa | 335.85 m/s
320 K, 4482.2 kPa | 339 m/s
320 K, 5819.9 kPa | 341.24 m/s
325.05 K, 48.1 kPa | 335.83 m/s
325.05 K, 192.9 kPa | 336 m/s and 335.99 m/s
325.05 K, 314.5 kPa | 336.13 m/s
325.05 K, 438.6 kPa | 336.27 m/s
325.05 K, 592.7 kPa | 336.44 m/s
325.05 K, 736 kPa | 336.6 m/s
325.05 K, 870.8 kPa | 336.76 m/s
325.05 K, 1376.5 kPa | 337.36 m/s
325.05 K, 1376.6 kPa | 337.37 m/s
325.05 K, 2721.4 kPa | 339.14 m/s
349.87 K, 48.9 kPa | 348.43 m/s and 348.44 m/s
349.87 K, 182.8 kPa | 348.62 m/s
349.87 K, 182.9 kPa | 348.61 m/s
349.87 K, 307.3 kPa | 348.77 m/s and 348.78 m/s
349.87 K, 447 kPa | 348.95 m/s and 348.97 m/s
349.87 K, 594.5 kPa | 349.14 m/s
349.87 K, 726.7 kPa | 349.32 m/s and 349.34 m/s
349.87 K, 864.5 kPa | 349.5 m/s
349.87 K, 864.6 kPa | 349.52 m/s
349.87 K, 1397.7 kPa | 350.24 m/s and 350.26 m/s
349.87 K, 2711.2 kPa | 352.19 m/s
